Test systems include 786-0 renal; SK-MEL-28 melanoma; HCT-116 colon; SN12C renal; SK-MEL-5 melanoma; UACC-62 melanoma; OVCAR-4 ovarian; MCF7 breast; MDA-MB-435; MDA-MB-231 breast.
Common to all, as to assay: DTP human tumour cell line panel, 48 h

As usually defined, the TGI is the concentration at which net growth stops. In general, GI50 refers to the concentration that inhibits growth by half.

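48-hour exposure; five concentrations; linearly interpolated endpoints. GI50 marks 50% less growth. TGI: concentration producing complete growth inhibition.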 Some results are limits rather than exact numbers.

`COC(=O)C1=C(O)C(O)=C(C(=O)OC)C1`: the TGI in the assay on 786-0 renal, with SK-MEL-28 melanoma, with HCT-116 colon, with SN12C renal, in the assay on SK-MEL-5 melanoma and with UACC-62 melanoma was greater than 100 µM in each case. The TGI in the assay with OVCAR-4 ovarian was greater than 100 µM.

`COc1ccc2ccc([Se]c3ccc4ccc(OC)cc4c3)cc2c1`: the TGI in the assay with 786-0 renal, in the assay with SK-MEL-28 melanoma, with HCT-116 colon, in the assay on SN12C renal, in the assay with SK-MEL-5 melanoma and in the assay on UACC-62 melanoma was greater than 100 µM in each case. This compound registered a TGI with OVCAR-4 ovarian of 46.6 µM.

On to `COc1ccc(/C=C2/C[N+](C)(C)C/C(=C/c3ccc(OC)cc3)C2=O)cc1`, for which the TGI in the assay with 786-0 renal was greater than 100 µM; in the assay on SK-MEL-28 melanoma, 18.6 µM; in the assay on HCT-116 colon it was greater than 100 µM; in the assay on SN12C renal it was greater than 100 µM; in the assay with SK-MEL-5 melanoma, greater than 72 µM; with UACC-62 melanoma it was 47.5 µM. Besides, in the assay on OVCAR-4 ovarian, the TGI is greater than 88.9 µM.

Regarding `CC1=Cc2cc3[n-]c(cc4nc(cc5[n-]c(cc1n2)cc5C)C(C)=C4CCC(=O)O)c(CCC(=O)O)c3C.[Pd+2]`, the GI50 with 786-0 renal is greater than 21.8 µM; in the assay with SK-MEL-28 melanoma it was 3.06 µM; in the assay on MCF7 breast it was greater than 100 µM; with MDA-MB-435 it was 68.9 µM; with HCT-116 colon, 24.1 µM; with SN12C renal, 9.17 µM. The GI50 with SK-MEL-5 melanoma is 7.73 µM; in the assay with UACC-62 melanoma it was 5.29 µM. The TGI was greater than 49.6 µM in the assay on 786-0 renal; 12.7 µM in the assay on SK-MEL-28 melanoma; greater than 100 µM in the assay on MCF7 breast; greater than 100 µM in the assay on MDA-MB-435; 41.4 µM with HCT-116 colon; 17.9 µM in the assay with SN12C renal. The TGI in the assay with SK-MEL-5 melanoma is 19.6 µM; with UACC-62 melanoma, 34.1 µM; in the assay on OVCAR-4 ovarian it was greater than 46.8 µM.

On to `Cc1cc(C)nc(Nc2nc3ccc([N+](=O)[O-])cc3[nH]2)n1`, for which the TGI in the assay with 786-0 renal, in the assay on SK-MEL-28 melanoma, in the assay with HCT-116 colon, in the assay with SN12C renal, in the assay with SK-MEL-5 melanoma and in the assay on UACC-62 melanoma was greater than 100 µM throughout. In the assay with OVCAR-4 ovarian, the TGI was greater than 100 µM.

On to `CCOC(=O)c1ccc(N2C(=O)/C(=C\OC)c3ccccc3C2=O)cc1`, for which the total growth inhibition concentration (TGI) with 786-0 renal, with SK-MEL-28 melanoma, in the assay on HCT-116 colon, in the assay with SN12C renal, in the assay with SK-MEL-5 melanoma and in the assay with UACC-62 melanoma was greater than 100 µM throughout. In the assay on OVCAR-4 ovarian, this compound yielded a TGI greater than 100 µM.

Consider `COC(=O)Nc1nc2ccccc2c(=O)[nH]1`, for which the TGI in the assay with 786-0 renal, with SK-MEL-28 melanoma, with MCF7 breast, in the assay with HCT-116 colon, in the assay with SN12C renal and in the assay on SK-MEL-5 melanoma was greater than 100 µM each time. Moreover, the TGI in the assay on UACC-62 melanoma, in the assay with OVCAR-4 ovarian and with MDA-MB-231 breast was greater than 100 µM each time.

As for `C=C1CC[C@@H]2C(C)(C)CCC[C@@]2(C)[C@@H]1Cc1cc(O)ccc1O`, the TGI was 12 µM in the assay on 786-0 renal; 9.83 µM in the assay on SK-MEL-28 melanoma; 16.8 µM in the assay with HCT-116 colon; 15.6 µM in the assay on SN12C renal; 19.7 µM in the assay with SK-MEL-5 melanoma; 22.8 µM with UACC-62 melanoma. The same compound gave a TGI in the assay on OVCAR-4 ovarian of 3.72 µM.

Consider `CCOC(=O)CC1=CSC2=NCCN12`, for which the TGI in the assay on 786-0 renal, in the assay with SK-MEL-28 melanoma, in the assay with HCT-116 colon, with SN12C renal, with SK-MEL-5 melanoma and in the assay with UACC-62 melanoma was greater than 100 µM throughout. In addition, in the assay on OVCAR-4 ovarian, the TGI was greater than 100 µM.

For `CC(=O)Nc1ccc(C2[C@H]3C(=O)N(c4ccc(Cc5ccc(N6C(=O)[C@@H]7ON(c8ccccc8)C(c8ccc(NC(C)=O)cc8)[C@@H]7C6=O)cc5)cc4)C(=O)[C@H]3ON2c2ccccc2)cc1` (stereo partly drawn), the TGI in the assay on 786-0 renal, with SK-MEL-28 melanoma, with HCT-116 colon, in the assay on SN12C renal, in the assay on SK-MEL-5 melanoma and with UACC-62 melanoma was greater than 100 µM in each case. The compound also had a concentration for total growth inhibition (TGI) in the assay on OVCAR-4 ovarian greater than 100 µM.

On to `c1ccc(N=C2c3ccccc3C3=NCCCN32)cc1`, for which the TGI is greater than 100 µM in the assay on 786-0 renal; greater than 100 µM in the assay with SK-MEL-28 melanoma; greater than 100 µM in the assay on HCT-116 colon; greater than 100 µM with SN12C renal; 76.8 µM with SK-MEL-5 melanoma; greater than 100 µM in the assay on UACC-62 melanoma. This compound also had a TGI in the assay on OVCAR-4 ovarian greater than 100 µM.

For the compound `COC(=O)c1ccc(N=NN(C)CO)cc1`, the TGI with 786-0 renal, with SK-MEL-28 melanoma, in the assay with HCT-116 colon, in the assay on SN12C renal, with SK-MEL-5 melanoma and in the assay with UACC-62 melanoma was greater than 100 µM in each case. In addition, in the assay on OVCAR-4 ovarian, the TGI was greater than 100 µM.

In the case of `O=C([CH-]C(=O)c1ccccc1)c1ccccc1.O=C([CH-]C(=O)c1ccccc1)c1ccccc1.[Nd+3].[OH-].[OH3+]`, the GI50 in the assay with 786-0 renal is 7.79 µM; in the assay on SK-MEL-28 melanoma, 11.5 µM; in the assay with HCT-116 colon, 5.26 µM; in the assay with SN12C renal, 12.6 µM; with SK-MEL-5 melanoma, 3.94 µM; in the assay with UACC-62 melanoma, 4.76 µM. Moreover, the GI50 with OVCAR-4 ovarian is 16.4 µM. The TGI came to 33.7 µM in the assay on 786-0 renal; 44.8 µM in the assay with SK-MEL-28 melanoma; 19 µM in the assay with HCT-116 colon; 70.7 µM in the assay with SN12C renal; 17.2 µM with SK-MEL-5 melanoma; 22.2 µM in the assay on UACC-62 melanoma. The compound further had a TGI in the assay with OVCAR-4 ovarian greater than 100 µM.

For the compound `CC(c1cccc2ccccc12)/[N+]([O-])=C/c1ccccc1` (stereo not drawn), the TGI in the assay with 786-0 renal, with SK-MEL-28 melanoma, in the assay with HCT-116 colon and in the assay with SK-MEL-5 melanoma was greater than 100 µM in each case.

For `O=C(CCCn1ccnc1[N+](=O)[O-])NCCn1ccnc1`, the TGI with 786-0 renal, with SK-MEL-28 melanoma, in the assay with MCF7 breast, in the assay on MDA-MB-435, in the assay with HCT-116 colon and in the assay on SN12C renal was greater than 100 µM in each case. Moreover, the TGI in the assay on SK-MEL-5 melanoma, with UACC-62 melanoma and in the assay with MDA-MB-231 breast was greater than 100 µM throughout.
